What was measured:
[1] = system: CSF-infiltrating CD4+ T cells from MS patients; settings: peptide 10 μM; 105 MS patients, quadruplicates; well positive if IFN-γ≥20 pg/ml
Description: 6×10^4 PHA-expanded CSF-infiltrating CD4^+ T cells were seeded in quadruplicate with 2×10^5 irradiated autologous PBMCs as antigen presenting cells and stimulated with peptides (Table 2) at a final concentration of 10 μM and with a T Cell Activation Kit (anti-CD3, anti-CD28, anti-CD2 beads) (Miltenyi Biotec) as positive control.
(§1) Release of IFN-γ was measured using the ELISA MAX™ Deluxe Set Human IFN-γ (Biolegend, San Diego, CA, USA) according to the manufacturer's instructions. A well was considered positive if IFN-γ≥20 pg/ml and a patient was considered positive for a peptide if the mean IFN-γ of the four wells was ≥20 pg/ml and at least 3 of the 4 wells were positive.

[2] = system: CSF-infiltrating CD4+ T cells from MS patients; settings: peptide 10 μM, 105 MS patients; for Positive wells % Proliferation: quadruplicates (420 wells per peptide), well positive if SI≥2, 72 h; for Positive patients % Proliferation: patient positive if mean SI of four wells ≥2 and at least 3 of four wells SI≥2
Description: CSF-infiltrating CD4+ T cells were expanded with PHA in a single round of stimulation using a previously reported protocol aimed to reduce TCR repertoire bias (Planas et al., 2008, Sci Transl Med, 10(462):eaat4301). 6×10^4 PHA-expanded CSF-infiltrating CD4^+ T cells were seeded in quadruplicate with 2×10^5 irradiated autologous PBMCs as antigen presenting cells and stimulated with peptides (Table 2) at a final concentration of 10 μM and with a T Cell Activation Kit (anti-CD3, anti-CD28, anti-CD2 beads) (Miltenyi Biotec) as positive control.
(§2) Proliferation was measured 72 h after stimulation using 3H-thymidine (Hartmann Analytic, Braunschweig, Germany) as previously reported (Planas et al., 2018). The stimulation index of single wells (SI) was calculated as follows: SI=(cpm well with peptide)/(Mean cpm wells without peptide). A well was considered positive if SI≥2.

[3] = system: CSF-infiltrating CD4+ T cells from MS patients; test: Reactivity of CSF-infiltrating CD4+ T cells by proliferation and/or IFN-γ release taken together (responder classification, comparison of readouts); settings: of 105 MS patients; main or only reactivity in proliferation and/or IFN-γ release
Description: PBMCs were freshly isolated using Ficoll (Eurobio, Germany) density gradient centrifugation. CSF-infiltrating CD4+ T cells were expanded with PHA in a single round of stimulation using a previously reported protocol aimed to reduce TCR repertoire bias (Planas et al., 2008, Sci Transl Med, 10(462):eaat4301). 6×10^4 PHA-expanded CSF-infiltrating CD4^+ T cells were seeded in quadruplicate with 2×10^5 irradiated autologous PBMCs as antigen presenting cells and stimulated with peptides (Table 2) at a final concentration of 10 μM and with a T Cell Activation Kit (anti-CD3, anti-CD28, anti-CD2 beads) (Miltenyi Biotec) as positive control.
as §2, §1

| Sequence | Positive wells % IFNγ release [1] [%] | Positive wells % Proliferation [2] [%] | Positive patients % Proliferation [2] [%] | Patients classified as responders to the peptide(s) [3] [%] |
| --- | --- | --- | --- | --- |
| MEVGWYRPPFSRVVHLYRNGK (listed as Homo sapiens) [MOG (35-55)] | 13.49 | 3.61 | 1.92 | 10.4 |
| KYLATASTMDHARHGFLPRH (listed as Homo sapiens) [MBP (13-32)] | 4.34 | 0.72 | 0.00 |  |
| PHNSNFGYSYAKRMI (listed as Homo sapiens) [GDP-L-FS (136-150)] | 8.35 | 7.14 | 5.71 |  |
| FRFTPFKQAVKETCA (listed as Homo sapiens) [GDP-L-FS (296-310)] | 12.65 | 6.43 | 4.76 |  |
| AQGTLSKIFKLGGRDSRSGSPMARR (listed as Homo sapiens) [MBP (146-170)] | 3.86 | 0.72 | 0.00 |  |
| YGCTFTAVIPTNVFG (listed as Homo sapiens) [GDP-L-FS (161-175)] | 6.92 | 7.38 | 6.66 |  |
| TAQTRALFEKVQPTH (listed as Homo sapiens) [GDP-L-FS (51-65)] | 7.16 | 5.48 | 3.80 |  |
| LSRFSWGAEGQRPGFGYGG (listed as Homo sapiens) [MBP (111-129)] | 6.75 | 1.20 | 0.96 |  |
| EEDEVSIKEAAEAVV (listed as Homo sapiens) [GDP-L-FS (246-260)] | 8.85 | 6.90 | 4.76 |  |
| HCLGKWLGHPDKFVGI (listed as Homo sapiens) [PLP (139-154)] | 3.86 | 1.92 | 0.96 |  |
| GQFRVIGPRHPIRALVGDEV (listed as Homo sapiens) [MOG (1-20)] | 4.58 | 1.20 | 0.00 |  |

From patent publication US20240329043A1, “METHOD FOR STRATIFICATION AND TREATMENT OF MULTIPLE SCLEROSIS” (Universität Zurich, priority 2021, published 2024)
